Experimental data from PMC8453635, “Piperidine Azasugars Bearing Lipophilic Chains: Stereoselective Synthesis and Biological Activity as Inhibitors of Glucocerebrosidase (GCase)” (The Journal of Organic Chemistry, 2021).

Tests used:
[1] = tested on: human fibroblasts wild type; experiment: MTT cytotoxicity test; format: cell-based; details: prolonged incubation at 100 and 50 μM
Experimental: The MTT test was carried out using the human fibroblasts wild type at different concentrations of compound 33·HCl. Fibroblasts were grown in the presence of Dulbecco’s modified Eagle’s medium supplemented with 10% fetal bovine serum (FBS), 1% glutamine, and 1% penicillin–streptomycin, at 37 °C in controlled atmosphere with 5% CO2. For the experiments, cells were seeded at a density of 20,000 cells per well in 24-well plates and grown for 24 h (or 48 h) before adding the compound. The compound was dissolved in water; then, aliquots of these were diluted in the growth medium. To preserve sterility of solutions, these were filtered with 0.22 μm filters before adding to the dishes containing fibroblasts. Then, cells were incubated at 37 °C in 5% CO2 for 24 h (or 48 h). After this time, the media were replaced with medium containing 0.5 mg/mL of 3-(4,5-dimethylthiazol-2-yl)-2,5-diphenyltetrazolium bromide (MTT); the cells were incubated for an additional 1 h at 37 °C in 5% CO2. Finally, the number of viable cells was quantified by the estimation of their dehydrogenase activity, which reduces MTT to water-insoluble formazan. […] The quantitation was carried out measuring the absorbance of samples at 570 nm with the iMark microplate absorbance reader (BIO RAD) in a 96-well format. […]
33.HCl at different concentrations. After this time, the viability of cells was evaluated using MMT assay. […]

[2] = tested on: β-glucosidase EC 3.2.1.21; experiment: Commercial glycosidase screening; format: biochemical; details: almonds
Experimental: (§1) Preliminary biological evaluation of compounds 14 and 15 (at 100 μM inhibitor concentration) was performed toward a panel of 12 commercial glycosidases (α-L-fucosidase EC 3.2.1.51 from Homo sapiens, α-galactosidase EC 3.2.1.22 from coffee beans, β-galactosidases EC 3.2.1.23 from Escherichia coli and Aspergillus oryzae, α-glucosidases EC 3.2.1.20 from yeast and rice, amyloglucosidase EC 3.2.1.3 from Aspergillus niger, β-glucosidase EC 3.2.1.21 from almonds, α-mannosidase EC 3.2.1.24 from Jack beans, β-mannosidase EC 3.2.1.25 from snail, and β-N-acetylglucosaminidases EC 3.2.1.52 from Jack beans and bovine kidney).
(§2) The percentage (%) of inhibition for compounds 14 and 15 toward the corresponding glycosidase was determined by quadruplicate in the presence of 100 μM of the inhibitor on the well. Each enzymatic assay (final volume 0.12 mL) contains 0.01–0.5 units/mL of the enzyme (with previous calibration) and 4.2 mM aqueous solution of the appropriate p-nitrophenyl glycopyranoside (substrate) buffered to the optimal pH of the enzyme. Enzyme and inhibitor were pre-incubated for 5 min at rt, and the reaction started by addition of the substrate. After 20 min of incubation at 37 °C, the reaction was stopped by addition of 0.1 mL of sodium borate solution (pH 9.8). The p-nitrophenolate formed was measured by visible absorption spectroscopy at 405 nm (Asys Expert 96 spectrophotometer). Under these conditions, the p-nitrophenolate released led to optical densities linear with both reaction time and concentration of the enzyme.
(§3) Biological screening towards commercial glycosidases
(§4) α-L-fucosidase EC 3.2.1.51
(§5) α-galactosidase EC 3.2.1.22 […]
(§6) β-glucosidase EC 3.2.1.21
(§7) α-mannosidase EC 3.2.1.24
(§8) β-mannosidase EC 3.2.1.25 […]
(§9) “-“: no inhibition (or less than 15%) detected.

[3] = tested on: α-L-fucosidase EC 3.2.1.51; experiment: Commercial glycosidase screening; format: biochemical; details: Homo sapiens
Experimental: as §1, §2, §3, §4, §5, §6, §7, §8, §9

[4] = tested on: β-mannosidase EC 3.2.1.25; experiment: Commercial glycosidase screening; format: biochemical; details: snail
Experimental: as §1, §2, §3, §4, §5, §6, §7, §8, §9

[5] = target: T1, α-mannosidase EC 3.2.1.24 (Canavalia ensiformis, UniProt C0HJB3); experiment: Commercial glycosidase screening; format: biochemical; details: Jack beans, read-out: % Inhibition at 0.1 mM
T1 construct: purchased
Experimental: as §1, §2, §3, §4, §5, §6, §7, §8, §9

[6] = target: T2, amyloglucosidase EC 3.2.1.3 (Aspergillus niger, UniProt P69328); experiment: Commercial glycosidase screening; format: biochemical; details: read-out: % Inhibition at 0.1 mM
T2 construct: purchased
Experimental: as §1, §2, §3, §4, §5, §6, §7, §8, §9

[7] = target: T3, α-galactosidase EC 3.2.1.22 (Coffea arabica, UniProt Q42656); experiment: Commercial glycosidase screening; format: biochemical; details: coffee beans, read-out: % Inhibition at 0.1 mM
T3 construct: purchased
Experimental: as §1, §2, §3, §4, §5, §6, §7, §8, §9

[8] = tested on: β-N-acetylglucosaminidase EC 3.2.1.52; experiment: Commercial glycosidase screening; format: biochemical
Experimental: as §1, §2, §3, §4
(§10) α-galactosidase EC 3.2.1.22
(§11) β-galactosidase EC 3.2.1.23
(§12) α-glucosidase EC 3.2.1.20
(§13) amyloglucosidase EC 3.2.1.3
as §6, §7
(§14) β-mannosidase EC 3.2.1.25
(§15) β-N-acetylglucosaminidase EC 3.2.1.52
as §9

[9] = target: T4, β-galactosidase EC 3.2.1.23 (Escherichia coli, UniProt P00722); experiment: Commercial glycosidase screening; format: biochemical; details: read-out: % Inhibition at 0.1 mM
T4 construct: purchased
Experimental: as §1, §2, §3, §4, §10, §11, §12, §13, §6, §7, §14, §15, §9

[10] = target: T5, β-galactosidase EC 3.2.1.23 (Aspergillus oryzae, UniProt Q2UCU3); experiment: Commercial glycosidase screening; format: biochemical; details: read-out: % Inhibition at 0.1 mM
T5 construct: purchased
Experimental: as §1, §2, §3, §4, §10, §11, §12, §13, §6, §7, §14, §15, §9

[11] = tested on: α-glucosidase EC 3.2.1.20; experiment: Commercial glycosidase screening; format: biochemical
Experimental: as §1, §2, §3, §4, §10, §11, §12, §13, §6, §7, §14, §15, §9

T4 sequence (P00722 2-1024): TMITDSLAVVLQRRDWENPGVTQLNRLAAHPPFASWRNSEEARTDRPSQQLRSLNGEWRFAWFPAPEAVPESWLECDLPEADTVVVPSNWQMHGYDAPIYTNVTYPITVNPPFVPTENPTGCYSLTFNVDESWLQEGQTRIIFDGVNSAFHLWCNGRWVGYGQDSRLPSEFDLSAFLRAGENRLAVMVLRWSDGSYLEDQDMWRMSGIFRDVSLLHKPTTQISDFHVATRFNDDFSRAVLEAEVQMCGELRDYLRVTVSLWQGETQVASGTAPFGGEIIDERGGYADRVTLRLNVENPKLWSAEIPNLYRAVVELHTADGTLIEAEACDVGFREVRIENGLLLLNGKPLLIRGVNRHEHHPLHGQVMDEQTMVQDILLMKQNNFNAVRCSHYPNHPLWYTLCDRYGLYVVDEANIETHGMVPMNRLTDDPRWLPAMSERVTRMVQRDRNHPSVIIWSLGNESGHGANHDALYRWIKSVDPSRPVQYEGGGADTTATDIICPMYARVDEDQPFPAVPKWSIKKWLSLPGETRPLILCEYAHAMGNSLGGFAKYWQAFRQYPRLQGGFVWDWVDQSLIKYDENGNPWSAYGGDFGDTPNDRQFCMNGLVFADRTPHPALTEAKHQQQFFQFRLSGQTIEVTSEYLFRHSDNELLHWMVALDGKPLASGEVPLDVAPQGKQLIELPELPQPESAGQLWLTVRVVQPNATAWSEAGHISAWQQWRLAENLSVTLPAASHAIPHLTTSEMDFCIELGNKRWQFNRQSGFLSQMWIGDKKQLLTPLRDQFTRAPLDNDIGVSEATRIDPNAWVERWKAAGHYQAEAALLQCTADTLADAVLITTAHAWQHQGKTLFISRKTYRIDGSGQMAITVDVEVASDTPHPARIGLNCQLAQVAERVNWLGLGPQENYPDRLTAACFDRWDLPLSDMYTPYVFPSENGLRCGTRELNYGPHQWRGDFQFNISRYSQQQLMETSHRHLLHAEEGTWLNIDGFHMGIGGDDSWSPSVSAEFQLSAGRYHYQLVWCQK
T5 sequence (Q2UCU3 19-1005): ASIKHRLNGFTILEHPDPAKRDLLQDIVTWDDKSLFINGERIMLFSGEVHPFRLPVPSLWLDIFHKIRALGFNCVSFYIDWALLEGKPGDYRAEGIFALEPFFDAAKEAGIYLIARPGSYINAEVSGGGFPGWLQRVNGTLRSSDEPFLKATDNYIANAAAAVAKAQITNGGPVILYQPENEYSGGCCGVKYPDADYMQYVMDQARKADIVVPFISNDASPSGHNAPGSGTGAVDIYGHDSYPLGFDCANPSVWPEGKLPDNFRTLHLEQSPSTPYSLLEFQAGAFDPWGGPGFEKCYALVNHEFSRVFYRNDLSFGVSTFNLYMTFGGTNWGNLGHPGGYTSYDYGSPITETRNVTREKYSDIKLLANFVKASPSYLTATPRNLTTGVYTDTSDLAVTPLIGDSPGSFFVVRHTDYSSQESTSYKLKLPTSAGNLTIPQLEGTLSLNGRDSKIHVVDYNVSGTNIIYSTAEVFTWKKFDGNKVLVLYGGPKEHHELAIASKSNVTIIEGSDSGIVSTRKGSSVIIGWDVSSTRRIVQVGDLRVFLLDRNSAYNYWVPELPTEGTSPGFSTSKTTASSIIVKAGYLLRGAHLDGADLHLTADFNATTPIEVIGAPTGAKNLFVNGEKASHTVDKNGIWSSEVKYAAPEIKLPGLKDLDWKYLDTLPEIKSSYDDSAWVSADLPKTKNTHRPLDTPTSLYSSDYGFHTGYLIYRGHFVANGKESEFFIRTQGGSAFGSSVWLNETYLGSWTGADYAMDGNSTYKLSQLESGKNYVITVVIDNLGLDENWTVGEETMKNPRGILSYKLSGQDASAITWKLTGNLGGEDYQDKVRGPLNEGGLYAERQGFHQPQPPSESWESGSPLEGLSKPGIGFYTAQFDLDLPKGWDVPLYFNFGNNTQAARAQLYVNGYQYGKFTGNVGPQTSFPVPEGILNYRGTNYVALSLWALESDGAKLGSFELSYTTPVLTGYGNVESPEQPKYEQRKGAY
T2 sequence (P69328 25-640): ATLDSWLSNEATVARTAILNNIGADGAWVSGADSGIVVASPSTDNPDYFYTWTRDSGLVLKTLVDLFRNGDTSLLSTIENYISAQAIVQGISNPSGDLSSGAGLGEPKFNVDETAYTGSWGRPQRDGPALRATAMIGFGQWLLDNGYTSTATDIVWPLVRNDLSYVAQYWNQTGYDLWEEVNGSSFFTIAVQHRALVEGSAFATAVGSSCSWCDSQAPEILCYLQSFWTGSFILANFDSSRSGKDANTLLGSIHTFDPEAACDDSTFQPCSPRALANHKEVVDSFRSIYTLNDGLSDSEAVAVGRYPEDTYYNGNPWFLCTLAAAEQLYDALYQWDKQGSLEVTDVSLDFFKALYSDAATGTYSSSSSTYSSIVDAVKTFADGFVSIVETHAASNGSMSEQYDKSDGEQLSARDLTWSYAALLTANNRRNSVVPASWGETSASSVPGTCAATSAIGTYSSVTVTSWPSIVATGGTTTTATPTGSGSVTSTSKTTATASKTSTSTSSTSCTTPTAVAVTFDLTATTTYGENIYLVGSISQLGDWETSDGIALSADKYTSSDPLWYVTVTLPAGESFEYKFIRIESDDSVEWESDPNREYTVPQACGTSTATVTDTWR
T1 sequence (C0HJB3 whole entry): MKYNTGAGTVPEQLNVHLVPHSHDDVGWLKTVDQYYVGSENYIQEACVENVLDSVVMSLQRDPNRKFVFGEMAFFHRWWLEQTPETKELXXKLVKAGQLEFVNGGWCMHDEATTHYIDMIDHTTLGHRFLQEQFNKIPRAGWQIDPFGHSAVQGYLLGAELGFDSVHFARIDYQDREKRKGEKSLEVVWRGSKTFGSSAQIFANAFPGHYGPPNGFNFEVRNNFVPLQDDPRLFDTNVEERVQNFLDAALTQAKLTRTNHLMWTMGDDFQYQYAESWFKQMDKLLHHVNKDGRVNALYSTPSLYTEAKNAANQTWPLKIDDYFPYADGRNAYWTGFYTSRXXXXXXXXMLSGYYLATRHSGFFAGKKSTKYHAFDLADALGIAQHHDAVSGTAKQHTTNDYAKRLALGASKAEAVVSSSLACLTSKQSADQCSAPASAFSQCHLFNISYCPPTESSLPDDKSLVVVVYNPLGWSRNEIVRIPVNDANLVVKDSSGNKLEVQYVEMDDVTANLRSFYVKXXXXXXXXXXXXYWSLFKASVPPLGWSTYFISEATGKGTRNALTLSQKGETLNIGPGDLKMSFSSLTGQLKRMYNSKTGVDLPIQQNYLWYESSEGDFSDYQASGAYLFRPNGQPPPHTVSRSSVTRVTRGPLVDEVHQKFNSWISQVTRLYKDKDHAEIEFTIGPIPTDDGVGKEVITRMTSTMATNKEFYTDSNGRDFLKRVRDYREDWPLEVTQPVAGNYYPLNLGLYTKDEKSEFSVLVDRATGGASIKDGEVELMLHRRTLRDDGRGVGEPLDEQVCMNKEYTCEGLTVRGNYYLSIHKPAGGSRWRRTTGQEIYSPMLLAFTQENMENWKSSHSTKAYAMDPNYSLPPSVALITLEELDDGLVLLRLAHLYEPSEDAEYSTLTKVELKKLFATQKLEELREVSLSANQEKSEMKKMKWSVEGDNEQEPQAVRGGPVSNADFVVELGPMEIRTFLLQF
T3 sequence (Q42656 16-378): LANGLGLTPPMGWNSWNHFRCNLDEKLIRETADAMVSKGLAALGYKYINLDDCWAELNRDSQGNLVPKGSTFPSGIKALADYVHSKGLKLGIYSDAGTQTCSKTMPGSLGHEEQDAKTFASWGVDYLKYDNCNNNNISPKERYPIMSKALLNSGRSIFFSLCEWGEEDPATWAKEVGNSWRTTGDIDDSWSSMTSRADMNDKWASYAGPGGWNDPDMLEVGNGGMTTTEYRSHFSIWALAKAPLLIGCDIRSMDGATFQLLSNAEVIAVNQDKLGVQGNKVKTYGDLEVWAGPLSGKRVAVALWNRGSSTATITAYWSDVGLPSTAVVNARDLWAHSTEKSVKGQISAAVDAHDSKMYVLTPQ

| Structure (SMILES) | cytotoxicity (MTT test) [1] | % Inhibition at 0.1 mM [2] | % Inhibition at 0.1 mM [3] | % Inhibition at 0.1 mM [4] | inhibition at 100 µM [5] | inhibition at 100 µM [6] | inhibition at 100 µM [7] | % Inhibition at 0.1 mM ([8]; Jack beans) | % Inhibition at 0.1 mM ([8]; bovine kidney) | inhibition at 100 µM [9] | inhibition at 100 µM [10] | % Inhibition at 0.1 mM ([11]; rice) | % Inhibition at 0.1 mM ([11]; yeast) |
| --- | --- | --- | --- | --- | --- | --- | --- | --- | --- | --- | --- | --- | --- |
| CCCCCCCC[C@@H]1[C@@H](O)[C@H](O)[C@H](O)CN1C(CCCCCCC)CCCCCCC.Cl [compound 33·HCl, (2R,3R,4R,5R)-2-Octyl-1-(pentadecan-8-yl)-piperidine-3,4,5-triol Hydrochloride] | remarkable cytotoxicity |  |  |  |  |  |  |  |  |  |  |  |  |
| CCCCCCCC[C@@H]1[C@@H](O)[C@H](O)[C@H](O)CN1CCCCCCCC [compound 15, (2R,3R,4R,5R)-1,2-Dioctylpiperidine-3,4,5-triol] |  | - (“-“: no inhibition (or less than 15%) detected.) | - (“-“: no inhibition (or less than 15%) detected.) | - (“-“: no inhibition (or less than 15%) detected.) | < 15% | < 15% | < 15% | - (“-“: no inhibition (or less than 15%) detected.) | - (“-“: no inhibition (or less than 15%) detected.) | < 15% | < 15% | - (“-“: no inhibition (or less than 15%) detected.) | - (“-“: no inhibition (or less than 15%) detected.) |
| CCCCCCCC[C@H]1[C@@H](O)[C@H](O)[C@H](O)CN1CCCCCCCC [compound 14, (2S,3R,4R,5R)-1,2-Dioctylpiperidine-3,4,5-triol] |  | 30% | - (“-“: no inhibition (or less than 15%) detected.) | - (“-“: no inhibition (or less than 15%) detected.) | < 15% | < 15% | < 15% | - (“-“: no inhibition (or less than 15%) detected.) | - (“-“: no inhibition (or less than 15%) detected.) | < 15% | < 15% | - (“-“: no inhibition (or less than 15%) detected.) | - (“-“: no inhibition (or less than 15%) detected.) |
